# Test results as given in ChEMBL document CHEMBL1126682, “Quinolone antimicrobial agents substituted with morpholines at the 7-position. Syntheses and structure-activity relationships” (J Med Chem, 1993).
# Tests used:
# Pseudomonas aeruginosa = assay: Minimum inhibition concentration against Pseudomonas aeruginosa U-31 strain; type: functional
# Escherichia coli [1] = assay: Minimum inhibition concentration against Escherichia coli NIHJ JC-2 strain; type: functional
# Enterococcus faecalis = assay: Minimum inhibition concentration against Enterococcus faecalis LS-101 strain; type: functional
# Staphylococcus aureus [2] = assay: Minimum inhibition concentration against Staphylococcus aureus FDA209P strain; type: functional
# Streptococcus pneumoniae = assay: Minimum inhibition concentration against Streptococcus pneumoniae Type I strain; type: functional
# Staphylococcus aureus [3] = assay: Effective dose against Staphylococcus aureus smith strain in mouse; type: functional
# Escherichia coli [4] = assay: Effective dose against Escherichia coli KC14 strain in mouse; type: functional
# [5] = biological target: T1, GABA-A receptor; anion channel (Homo sapiens) (UniProt P14867+P47870+P18507+P28472+P48169+Q99928+Q9UN88+P34903+O00591+O14764+Q8N1C3+P18505+P78334+P47869+P31644+Q16445); assay: Percentage of GABA-induced chloride currents with 10 e-5 M 4-biphenylacetic acid; type: functional; conditions: Bull Frog
# [6] = The compound was evaluated for the solubility in water at 25 degrees Centigrade; type: ADME
# [7] = biological target: T1, GABA-A receptor; anion channel (Homo sapiens); assay: Percentage of GABA-induced chloride currents with compound alone at 10 e-4 M; type: functional; conditions: Bull Frog
# Staphylococcus aureus [8] = assay: Minimum inhibitory concentration against Staphylococcus aureus Smith; type: functional
# [9] = biological target: GABA-A receptor; anion channel; assay: Inhibition of [3H]muscimol binding to GABA A receptor 4-biphenylacetic acid at 10 e-4 M; type: protein-complex assay
# [10] = biological target: T1, GABA-A receptor; anion channel (Homo sapiens); assay: Percentage of GABA-induced chloride currents with 10e-4 M 4-biphenylacetic acid; type: functional; conditions: Bull Frog
# Mus musculus [11] = assay: Percentage of mice with convulsion (400 mg/kg fenbufen); type: functional
# Escherichia coli [12] = assay: Minimum inhibitory concentration against Escherichia coli KC14 strain; type: functional
# [13] = biological target: GABA-A receptor; anion channel; assay: Inhibition of [3H]muscimol binding to GABA A receptor with compound alone at 10 e-4 M; type: protein-complex assay
# Mus musculus [14] = assay: Percentage of mice with convulsion with compound alone at 400 mg/kg; type: functional
# Staphylococcus aureus [15] = assay: Minimum inhibition concentration against Staphylococcus aureus MRSA strain; type: functional
# [16] = biological target: T1, GABA-A receptor; anion channel (Homo sapiens); assay: Percentage of GABA-induced chloride currents, compound with 10E-4 M 4-biphenylacetic acid; type: functional; conditions: Bull Frog
# [17] = biological target: GABA-A receptor; anion channel; assay: Inhibition of [3H]muscimol binding to GABA A receptor with 10 e-4 M 4-biphenylacetic acid; type: protein-complex assay
SMILES,MIC (Pseudomonas aeruginosa) [µg/mL],MIC (Escherichia coli [1]) [µg/mL],MIC (Enterococcus faecalis) [µg/mL],MIC (Staphylococcus aureus [2]) [µg/mL],MIC (Streptococcus pneumoniae) [µg/mL],Currents [5] [%],solubility [6] [µg/mL],Currents [7] [%],MIC (Staphylococcus aureus [8]) [µg/mL],IC50 ([9]; read-out: IC50) [µM],Currents [10] [%],MIC (Escherichia coli [12]) [µg/mL],IC50 [13] [µM],ED50 (Staphylococcus aureus [3]) [mg mouse-1],ED50 (Escherichia coli [4]) [mg mouse-1],Convulsion (Mus musculus [11]) [%],Convulsion (Mus musculus [14]) [%],also measured
NCCC1CN(c2c(F)cc3c(=O)c(C(=O)O)cn(C4CC4)c3c2F)CCO1 (stereo not drawn),12.5,1.56,0.39,0.2,0.39,–,–,–,–,–,–,–,–,–,–,–,–,–
NCC1CN(c2c(F)cc3c(=O)c(C(=O)O)cn(C4CC4)c3c2F)CCCO1 (stereo not drawn),6.25,0.39,1.56,0.78,1.56,–,–,–,–,–,–,–,–,–,–,–,–,–
CC1COc2c(N3CCN(C)CC3)c(F)cc3c(=O)c(C(=O)O)cn1c23 (stereo not drawn) [OFLOXACIN],0.78,0.1,0.78,0.2,0.78,87,–,94,0.2,11,39,0.05,> 100,0.27,0.009,0,0,–
O=C(O)c1cn(C2CC2)c2cc(N3CCNCC3)c(F)cc2c1=O [CIPROFLOXACIN],0.1,–,0.39,0.1,0.39,0,–,64,0.1,–,–,< 0.006,100,0.354,0.007,63,0,MIC (Staphylococcus aureus [15]): 1.56 µg/mL; IC50 [9]: 0.41 µM
CC1COc2c(N3CCOC(CN)C3)c(F)cc3c(=O)c(C(=O)O)cn1c23 (stereo not drawn),25,3.13,3.13,0.78,12.5,–,–,–,–,–,–,–,–,–,–,–,–,–

# Further molecules by falling MIC (Pseudomonas aeruginosa), results first:
MIC (Pseudomonas aeruginosa) [µg/mL],MIC (Escherichia coli [1]) [µg/mL],MIC (Enterococcus faecalis) [µg/mL],MIC (Staphylococcus aureus [2]) [µg/mL],MIC (Streptococcus pneumoniae) [µg/mL],Currents [5] [%],solubility [6] [µg/mL],Currents [7] [%],MIC (Staphylococcus aureus [8]) [µg/mL],IC50 ([9]; read-out: IC50) [µM],Currents [10] [%],MIC (Escherichia coli [12]) [µg/mL],IC50 [13] [µM],SMILES,ED50 (Staphylococcus aureus [3]) [mg mouse-1],ED50 (Escherichia coli [4]) [mg mouse-1],Convulsion (Mus musculus [11]) [%],Convulsion (Mus musculus [14]) [%],also measured
3.13,0.1,0.1,0.025,0.1,90,630,94,0.012,> 100,78,0.05,> 100,CNCC1CN(c2c(F)cc3c(=O)c(C(=O)O)cn(C4CC4)c3c2F)CCO1 (stereo not drawn),0.044,0.024,0,0,–
3.13,0.78,3.13,0.2,12.5,100,–,100,–,–,92,–,> 100,CCn1cc(C(=O)O)c(=O)c2cc(F)c(N3CCOCC3)cc21,–,–,0,0,MIC (Staphylococcus aureus [15]): 0.39 µg/mL; IC50 [17]: > 100 µM
3.13,0.1,0.2,0.1,0.05,–,–,–,–,–,–,–,–,CCNCC1CN(c2c(F)cc3c(=O)c(C(=O)O)cn(C4CC4)c3c2F)CCO1 (stereo not drawn),–,–,–,–,–
3.13,1.56,0.39,0.2,0.39,89,2900,94,0.1,> 100,79,0.39,> 100,CCn1cc(C(=O)O)c(=O)c2cc(F)c(N3CCOC(CN)C3)c(F)c21 (stereo not drawn),0.521,0.232,0,0,–
0.78,0.1,0.78,0.025,0.39,91,9,91,0.05,> 100,–,0.1,> 100,O=C(O)c1cn(C2CC2)c2c(F)c(N3CCOCC3)c(F)cc2c1=O,1.304,0.056,0,0,MIC (Staphylococcus aureus [15]): 0.05 µg/mL; Currents [16]: 71%
0.78,0.1,0.05,0.025,0.05,90,580,90,0.012,> 100,72,0.05,> 100,NCC1CN(c2c(F)cc3c(=O)c(C(=O)O)cn(C4CC4)c3c2F)CCO1 (stereo not drawn),0.067,0.017,0,0,–
